This experiment has as its target protein kinase. Description: HTS ATP-utilizing enzyme assay, off-chip mobility-shift format (Caliper HTS 250). Format: biochemical, human. The conditions noted are these: kinase(s) for which the compound exhibits protein kinase inhibitory activity; test compound 10 μM; active = greater than three-sigma from the mean activity of inactive compounds. The text has this:
The following procedures describe the reagent and plate preparation for a HTS of an ATP-utilizing enzyme, such as a protein kinase, run in an off-chip mobility-shift assay format. The following provides an HTS protocol for running a protein kinase HTS screen on a Caliper HTS 250 microfluidics system. The following parameters are dependent on the protein kinase used and can be determined by one skilled in the art as part of a typical assay development process. For example, the peptide substrate used can be identified from the current literature, by screening a peptide library of potential protein kinase substrates, or by other applicable means accepted in the field.
The following table provides typical screen assay parameters appropriate for a Caliper HTS 250 microfluidics system.
The reagents and buffers listed in the following table are generally applicable for developing and running an HTS screen on a human protein kinase using the Caliper HTS 250 system.
The following reagents were prepared using the previously described buffers.
A 2× Master Buffer solution was prepared by combining 200 mL of 1 M HEPES, pH 7.5, 2 mL of 10% Triton X-100, 20 mL of 10% BSA, and 778 mL of H2O.
Assays to determine the kinase inhibitory activity of chemical entities of the present disclosure were performed using a Caliper HTS 250 microfluidics device, Greiner U-bottom assay plates, a Multidrop for transfer of reagents, and Biomek FX (AMNCBM03) software. Initially, 2.4 μL of a 1 mM solution of a test compound in 100% DMSO was added to a well of the Greiner U-bottom plate. A single Greiner U-bottom plate having 24×16 wells could include multiple test compounds. […] Using the Biomek FX, 10 μL of 0.5 M EDTA was added by the span-8 to wells, indicated as 100% Control and 2.4 μL of 100% DMSO was added by the span-8 to wells, indicated as 0% Control. […] The total reaction volume in each well was 25 μL, and the concentration of the test compound was 10 μM. The assay plate was incubated for 2.5 hrs at 20° C. to 22° C. […] The inhibition of the ATP-utilizing enzyme, such as a particular protein kinase, was determined by measuring the ratio of the peptide substrate to phosphorylated product for each well of the assay plate using the Caliper HTS 250 system.
The use of three-sigma statistical limits represents a conservative method for declaring potential hits among targets. The three-sigma activity, as well as the mean population activity, can be different for each target enzyme.

For 67 compounds, Kinase results are on record in patent US20050288347A1, “Certain triazole-based compounds, compositions, and uses thereof” (priority 2004, published 2005).

“Also recorded” adds a separate entry of the source.

Regarding `Cc1cccc(OCc2nnc(SCC(=O)N3CCCc4ccccc43)n2Cc2ccco2)c1C`, the Kinase entry is “AKT1”.

With `Cc1cc(NC(=O)CSc2nnc(-c3cccnc3)n2-c2ccc(F)cc2)no1`, the Kinase result is given as “FYN”. Then `COc1ccc(-n2c(SCC(=O)N3CCC(C)CC3)nnc2-c2ccccc2)cc1`, with “DAPK1”.

Turning to `O=C(CSc1nnc(-c2ccc(O)cc2)n1Cc1ccco1)N1c2ccccc2Sc2ccccc21`, the Kinase result was “GSK3-β and GSK3-α and MSK2”. With `O=C(CSc1nnc(-c2ccncc2)n1Cc1ccco1)Nc1ccccc1`, the Kinase result is “SRC and GSK3-α and AKT3”. As to `O=C(CSc1nnc(-c2ccccc2O)n1Cc1ccccc1)Nc1cccc(I)c1`, the Kinase entry was “SYK”.

Consider `CNC(=O)CSc1nnc(COc2ccccc2)n1Cc1ccccc1`, for which the Kinase result is recorded as “FYN”. As for `CCn1c(SCC(=O)N2CCOCC2)nnc1-c1ccc(S(=O)(=O)N2CCCCC2)cc1`, the entry is “PAK2”; as for `CCn1c(CNc2ccc(OC)cc2)nnc1SCC(=O)Nc1ccccc1C(F)(F)F`, “FYN and PDGFRR-α and FLT-3”.

For the compound `Cc1csc(NC(=O)CSc2nnc(-c3cccnc3)n2C)n1`, the Kinase entry is “PAK2”. As for `COc1ccccc1-n1c(SCC(N)=O)nnc1-c1ccccc1O`, the entry is “AURORA-A”; as for `CCN(CC)S(=O)(=O)c1ccc(-c2nnc(SCC(=O)Nc3nccs3)n2CC)cc1`, “GSK3-α; also recorded: GSK3-β”; as for `COc1ccc(C)cc1NC(=O)CSc1nnc(-c2ccc(Br)cc2)n1-c1ccccc1`, “SYK”.

With `Cn1c(SCC(=O)Nc2cccc(C(F)(F)F)c2)nnc1-c1ccc(O)cc1`, the Kinase entry is “GSK3-β and SRC and GSK3-α”. As for `Cc1ccc(NC(=O)CSc2nnc(-c3ccc(O)cc3)n2C)cc1`, the entry is “GSK3-β; also recorded: GSK3-α”; as for `COCCCn1c(SCC(=O)N2CCCCC2)nnc1-c1ccc(C(C)(C)C)cc1`, “CDK5”; as for `Cn1c(SCC(=O)N(CC(=O)NC2CCCCC2)C2CCCC2)nnc1-c1ccc(C(C)(C)C)cc1`, “DAPK1”.

`COc1ccc(-n2c(CNc3ccccc3Cl)nnc2SCC(=O)Nc2ccc([N+](=O)[O-])cc2)cc1`: the Kinase entry was “CHEK2”. For `CCn1c(CNc2cccc(Cl)c2)nnc1SCC(=O)NCc1ccco1`, the Kinase result was “PAK2”. As for `NC(=O)CSc1nnc(CNc2cccc(Cl)c2)n1CCc1ccccc1`, the entry is “CDK2-cyclinA and CDK1 and AURORA-A”; as for `CCc1cccc(C)c1NC(=O)CSc1nnc(CNc2ccc(Cl)cc2)n1CC`, “LCK”; as for `Cc1cccc(C)c1NC(=O)C(C)Sc1nnc(CNc2ccc(Cl)cc2)n1-c1ccccc1` (stereo not shown), “CDK2-cyclinE”.

With `Cc1ccc(-n2c(CNc3ccc(F)cc3)nnc2SCC(=O)Nc2ccccc2C(F)(F)F)cc1`, the Kinase entry is listed as “AKT1”.

Take `NC(=O)CSc1nnc(CNc2ccc(F)cc2)n1-c1ccccc1`: the Kinase result was “FLT-3”. As for `COc1ccc(OCc2nnc(SCC(=O)Nc3ccccc3OC)n2C)cc1`, the entry is “PDGFRR-α and PKA”. As for `COc1ccc(NCc2nnc(SCC(=O)Nc3ccccc3C)n2C)cc1`, the entry is “INSR and CHEK1 and FYN”; as for `COc1ccc(NCc2nnc(SCC(=O)Nc3cccc(C(F)(F)F)c3)n2C)cc1`, “PDGFRR-α and FYN and FLT-3”. Then `COc1ccc(NCc2nnc(SCC(=O)Nc3ccccc3)n2-c2ccc(C)cc2)cc1`, with “FYN and PDGFRR-α and FLT-3”. On to `COc1ccc(NCc2nnc(SCC(=O)Nc3ccccc3C(F)(F)F)n2-c2ccccc2)cc1`, for which the Kinase result was “PDGFRR-α”.

For `Cc1cc(C)nc(SCc2nnc(SCC(=O)Nc3ccccc3)n2-c2ccccc2)n1`, the Kinase result is “MAPKAPK-2”.

With `Cc1ccc(NCc2nnc(SCC(=O)N3c4ccccc4Sc4ccccc43)n2C)cc1`, the Kinase result is given as “DAPK1”.

For `Cc1ccc(NCc2nnc(SCC(=O)Nc3ccc(C)cc3Br)n2-c2ccccc2)cc1`, the Kinase entry is recorded as “AURORA-A”. As for `COc1ccc(-n2c(Cc3ccccc3)nnc2SCC(=O)Nc2ccccc2)cc1`, the entry is “CHEK2”; as for `COc1ccc(NCc2nnc(S)n2-c2cccc(Cl)c2)cc1`, “PDGFRR-α and AURORA-A and FYN”; as for `COc1ccc(-n2c(S)nnc2COc2ccc3ccccc3c2)cc1`, “GSK3-α and CDK1”. Regarding `Cc1ccc(S(=O)(=O)Nc2ccc(-c3nnc(SCC(=O)N4CCCCC4)n3C)cc2)cc1`, the Kinase entry is listed as “AKT1”. As for `Cc1ccc(-n2c(C)nnc2SCc2nnc(S)n2-c2ccccc2)cc1`, the entry is “PDGFRR-α”; as for `COc1ccc(OCc2nnc(SCC(=O)Nc3ccc(C)cc3Br)n2-c2ccccc2)cc1`, “CDK1”; as for `COc1ccc(NCc2nnc(SCC(=O)Nc3ccc(C)cc3Br)n2C)cc1`, “FYN and PDGFRR-α and FLT-3”. On to `CCOc1ccc(NCc2nnc(SCC(=O)Nc3ccccc3Br)n2-c2ccccc2)cc1`, for which the Kinase result was “PDGFRR-α and FYN and FLT-3”. As for `Cc1cccc(NC(=O)CSc2nnc(-c3ccc(O)cc3)n2-c2ccccc2)c1C`, the entry is “MSK2”; as for `COCCCn1c(SCC(=O)Nc2c(C)cccc2C)nnc1-c1ccncc1`, “FYN”.

With `COc1ccc(NCc2nnc(SCC(=O)Nc3cccc(C(C)=O)c3)n2-c2ccc(Cl)cc2)cc1`, the Kinase entry is “PDGFRR-α and FYN and FLT-3”. Then `COc1ccc(-n2c(CNc3ccccc3Cl)nnc2SCC(=O)Nc2cccc(C(C)=O)c2)cc1`, with “CHEK2”. Then `CCn1c(COc2ccccc2)nnc1SCC(=O)Nc1sc2c(c1C#N)CCCC2`, with “AKT1”; and `COc1ccc(-n2c(S)nnc2-c2ccc(NS(=O)(=O)c3ccc(C)cc3)cc2)cc1`, with “GSK3-β; also recorded: GSK3-α; also recorded: AURORA-A”. Then `COc1ccc(NCc2nnc(SCC(=O)Nc3ccc(C(C)=O)cc3)n2-c2ccc(OC)cc2)cc1`, with “PDGFRR-α and FYN and c-TAK1”. With `CCn1c(CNc2cccc(Cl)c2)nnc1SCC(=O)Nc1ccc(C(C)=O)cc1`, the Kinase entry was “CDK1”. As for `COc1ccc(NCc2nnc(SCC(=O)Nc3ccc(C(C)=O)cc3)n2C)cc1`, the entry is “PDGFRR-α and FLT-3 and FYN”; as for `COc1ccc(NCc2nnc(SCC(=O)Nc3ccc(Br)cc3)n2C)cc1`, “PDGFRR-α and FYN and AURORA-A”. As for `CCC(=O)Nc1cc(NC(=O)CSc2nnc(-c3ccc(O)cc3)n2CC)ccc1C`, the entry is “SGK1”; as for `CCOc1ccc2nc(NC(=O)CSc3nnc(-c4ccncc4)n3CCCOC)sc2c1`, “GSK3-β; also recorded: PDGFRR-α; also recorded: GSK3-α”. Take `CCn1c(SCC(=O)Nc2nc3ccccc3s2)nnc1-c1cccnc1`: the Kinase result is reported as “GSK3-β; also recorded: GSK3-α; also recorded: CDK2-cyclinE”.

For `Cn1c(SCC(=O)Nc2nc3ccccc3s2)nnc1-c1ccco1`, the Kinase result is “GSK3-α”. As for `CCn1c(CNc2ccc(OC)cc2)nnc1SCC(=O)Nc1ccccc1-c1ccccc1`, the entry is “PDGFRR-α and FYN and GSK3-β”; as for `COc1ccc(NCc2nnc(SCC(=O)Nc3cccc(-c4ccccc4)c3)n2C)cc1`, “PDGFRR-α and FYN and CHEK2”. Then `O=C(CSc1nnc(COc2cccc3cccnc23)n1-c1ccccc1)Nc1ccccc1`, with “SGK1 and CDK1”. On to `CCOC(=O)CN(C(=O)CSc1nnc(-c2ccncc2)n1CCCN(C)C)c1cccc([N+](=O)[O-])c1`, for which the Kinase entry was “CDK1”.

As to `CCOC(=O)CN(C(=O)CSc1nnc(-c2ccccc2O)n1CCc1ccccc1)c1cccc([N+](=O)[O-])c1`, the Kinase entry is listed as “AURORA-A”. Then `CCOC(=O)c1c(NC(=O)CSc2nnc(-c3ccccc3O)n2CCc2ccccc2)sc(C)c1C`, with “CDK2-cyclinA”; and `CCOC(=O)c1c(NC(=O)CSc2nnc(CNc3ccc(OC)cc3)n2C)sc(C)c1C`, with “PDGFRR-α; also recorded: FLT-3; also recorded: AURORA-A”; and `CCOC(=O)c1cccc(NC(=O)CSc2nnc(CNc3ccc(OC)cc3)n2-c2ccc(OC)cc2)c1`, with “AURORA-A; also recorded: PDGFRR-α; also recorded: CHEK2”. Then `CCOC(=O)c1ccc(NC(=O)CSc2nnc(-c3ccc(O)cc3)n2C)cc1`, with “GSK3-β; also recorded: AURORA-A; also recorded: GSK3-α”; and `CCOC(=O)c1ccc(NC(=O)CSc2nnc(CNc3ccc(C)cc3)n2CC)cc1`, with “CHEK2”; and `CCn1c(CNc2cccc(Cl)c2)nnc1SCC(=O)Nc1ccccc1C(=O)OC`, with “AURORA-A”.

As for `COC(=O)c1ccccc1NC(=O)CSc1nnc(CNc2ccc(OC)cc2)n1-c1ccc(C)cc1`, the Kinase result is “PDGFRR-α and AURORA-A and FYN”. Then `COC(=O)c1ccc(NC(=O)CSc2nnc(-c3ccccc3O)n2-c2ccccc2OC)cc1`, with “AURORA-A”.
